These are literature values, as cited in patent US8916150B2 (priority 2009, dated 2014).

Data set [1] relates to botulinum toxin light chain (LC).
For data set [2] the following is noted: in vivo.
The target of another data set is LC of BoNT-A (Clostridium botulinum, UniProt P0DPI1).
Sequence of LC of BoNT-A (P0DPI1 2-448 limits assumed): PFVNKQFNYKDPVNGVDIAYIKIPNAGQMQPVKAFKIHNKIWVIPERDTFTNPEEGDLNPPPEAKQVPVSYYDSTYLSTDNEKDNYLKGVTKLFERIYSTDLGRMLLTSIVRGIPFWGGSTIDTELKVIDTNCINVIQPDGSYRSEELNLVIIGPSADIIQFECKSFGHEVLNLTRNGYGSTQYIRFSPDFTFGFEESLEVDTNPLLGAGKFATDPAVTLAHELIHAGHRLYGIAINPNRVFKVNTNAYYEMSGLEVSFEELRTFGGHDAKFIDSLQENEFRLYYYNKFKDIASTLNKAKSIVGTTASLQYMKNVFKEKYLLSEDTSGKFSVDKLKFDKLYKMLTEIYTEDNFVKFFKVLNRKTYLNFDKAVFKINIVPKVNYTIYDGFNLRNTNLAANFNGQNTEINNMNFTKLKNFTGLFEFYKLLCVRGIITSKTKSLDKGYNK

As for `O=C(O)CN(CCN(CC(=O)O)CC(=O)O)CC(=O)O` [EDTA, ethylenediaminetetraacetate], the “effect on LC enzymatic activity on removal of Zn2+” value in data set [1] was “completely abolishes enzymatic activity”.

As to `CC(=O)[O-].CC(=O)[O-].[Zn+2]` [zinc acetate], the “nausea and vomiting after single dose” value in data set [2] is “induces nausea and vomiting”.

In the case of `[Cl-].[Cl-].[Zn+2]` [zinc chloride], the “effect on autocatalytic fragmentation of LC” value on LC of BoNT-A is listed as “enhanced”.
